Tested on: vaginal microbiota (PB-primer target groups)
Experiment: PB-qPCR microbial profiles of vaginal swabs of recurrent BV patients (Example 2)
Type: in vivo, human
Conditions: P4
Protocol: Sample processing, DNA extraction, and qPCR. Microbial gDNA was purified from swabs in 1-2 ml saline or lysis solution by a high SDS/alkaline lysis—phenol extraction protocol as described previously in Lambert and resuspended in 200 μL TE (10 mM Tris, pH 8, 1 mM EDTA). The lysed bacterial gDNA is stable for over one month at room temperature in lysis solution buffer (data not shown) and this buffer prevents changes in titer due to possible stability issues with different strains of bacteria in saline. An aliquot of purified DNA was assayed by qPCR with 18 universal and phylogenetic branch-inclusive (PB) primers and PCR conditions as described previously in Lambert. Additional primers, targeting the Enterococcus genus and its cytolysin gene CyILL, are provided in SEQ ID NOs: 92 and 95 (Enterococcus), and 93 and 96 (cytolysin gene). Each PB-primer targets a branch of the phylogenetic tree, from whole phyla to family or genus, and is far more inclusive than species-specific primers. Relative LB composition of the vaginal microbiome was determined by dividing the Lactobacillaceae titer by the sum of all PB-primers and by using the disclosed LB-blocker approach. Briefly, the LB-blocker approach uses the difference between the quantitative cycles (Cq) of two parallel qPCR reactions with universal primers targeting the 16S rRNA gene, when one of the reactions is in the presence of LB spp.-specific blocking oligomers (LB-blockers) that have been chemically modified to prevent extension and that partially overlap the universal primer binding site, effectively rendering the LB DNA “invisible” to the universal PCR, even when LB gDNA is present at great excess compared to non-LB gDNA, as is common in healthy and PT samples. PB-primers amplicons were selectively sequenced to confirm they were correctly targeted and to identify the dominant species. These were “cleaned” enzymatically as described in Lambert, and Sanger sequenced at Functional Biosciences (Madison, WI). Sequences were uploaded to Ribosomal Database Project II using its Pipeline function; species were identified based on phylogenetic trees constructed in Molecular Evolutionary Genetics Analysis (MEGA5) software.
Calculations. Cq values from qPCR reactions were converted to molecules per reaction by comparing sample Cq values to a standard curve from the same run of Cq values derived from dilutions of an amplicon of known target of known concentration. Molecules per reaction were converted to cells per swab, assuming an average of 5 ribosomal genes per cell and proportioned to the ratio of the volume of the sample used in the DNA prep and the amount of sample used in the qPCR reaction. Delta Cq (ΔCq) values of LB-blocked reaction pairs were calculated as Cq (blocked sample)−Cq (unblocked sample). Differences between patient groups were compared using the t test in (GraphPad software).

SMILES: CCS(=O)(=O)CCn1c([N+](=O)[O-])cnc1C [tinidazole]
- Relative level of the 7 non-LB targets detected after treatment: under 0.1%
- Response to treatment (microbial profile): responded well
